Laboratory results as given in publication PMC8155809 (The Journal of General Physiology, 2021).
Read-outs that look alike come from different tables or passages of the source.

Columns and labels:
human TREK-2 = target: T1, human TREK-2 (Homo sapiens, UniProt P57789); assay: Macroscopic TREK-2 currents in giant excised patches from Xenopus oocytes; assay type: cell-based
T1 construct: expressed in transfected cells; host or cells: Xenopus laevis oocytes injected with in vitro transcribed mRNA (pFAW vector)
T1 sequence (P57789 1-543 isoform P57789-4): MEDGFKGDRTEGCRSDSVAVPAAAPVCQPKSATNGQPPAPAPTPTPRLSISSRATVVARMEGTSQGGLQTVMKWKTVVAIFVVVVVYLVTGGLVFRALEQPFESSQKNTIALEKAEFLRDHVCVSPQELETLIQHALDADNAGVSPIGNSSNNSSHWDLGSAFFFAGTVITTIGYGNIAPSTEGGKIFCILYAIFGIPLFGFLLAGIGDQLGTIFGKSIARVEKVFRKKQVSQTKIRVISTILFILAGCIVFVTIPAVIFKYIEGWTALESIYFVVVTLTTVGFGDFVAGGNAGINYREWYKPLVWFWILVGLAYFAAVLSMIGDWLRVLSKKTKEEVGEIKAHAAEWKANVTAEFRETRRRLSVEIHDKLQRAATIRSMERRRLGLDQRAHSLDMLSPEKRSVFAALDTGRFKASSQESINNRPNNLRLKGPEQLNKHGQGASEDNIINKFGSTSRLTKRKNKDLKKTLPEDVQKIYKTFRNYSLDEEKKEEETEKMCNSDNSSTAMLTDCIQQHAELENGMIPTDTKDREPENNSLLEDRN
Method: (§1) Full-length human TREK-2 isoform 3 (NCBI accession no. NP_612191) was used throughout this study and was subcloned into the pFAW vector for expression in oocytes. The truncated construct used to generate protein (TREK-2ΔN/ΔC) is identical to that used previously to obtain crystal structures ([Dong et al., 2015]); it contains a deletion of 71 residues at the N terminus and 213 residues at the C terminus. […] Desamino chloro-fluoxetine (Toronto Research Chemicals) was dissolved in chloroform and diluted to working concentrations on the day of experimenting (maximum final concentration was 0.01%).
Oocytes were prepared for injection of mRNA by collagenase digestion followed by manual defolliculation and stored in ND96 solution that contained (in mM) 96 NaCl, 2 KCl, 1.8 CaCl2, 1 MgCl2, and 10 HEPES (pH 7.4) and was supplemented with 2.5 mM sodium pyruvate 50 µg/ml gentamycin, 50 µg/ml tetracycline, 50 µg/ml ciprofloxacin, and 100 µg/ml amikacin. Cells were injected with 1–4 ng mRNA up to 4 d after isolation. In vitro transcription of mRNA was done using the Amplicap SP6 Kit (Cambio). Experiments were performed 12–24 h after injection at room temperature (22°C unless otherwise indicated). For measurement and comparison of basal whole-cell currents, oocytes were injected with 4 ng RNA and recorded exactly 24 h after injection.
(§2) For currents recorded in Xenopus laevis oocytes, giant-patch electrodes were pulled from thick-walled borosilicate glass and polished to give pipette resistances of ∼0.3–0.5 MΩ when filled with patch solution. Pipette solution contained (in mM) 116 NMDG, 4 KCl, 1 MgCl2, 3.6 CaCl2, and 10 HEPES (pH 7.4), while the bath solution contained (in mM) 120 KCl, 1 NaCl, 2 EGTA, and 10 HEPES (pH 7.3). Patches were perfused via a gravity-flow perfusion system and a HEKA EPC 10 USB single computer–controlled amplifier was used and currents recorded using a Patchmaster v2 × 90.5 (HEKA Electronics), filtered at 1 kHz, and sampled at 10 kHz. For currents recorded in HEK293 cells, patch electrodes were pulled from thick-walled borosilicate glass and polished to give pipette resistances of ∼3–5 MΩ when filled with patch solution. The currents were recorded from excised patches with both intracellular and extracellular solution containing 200 mM KCl and 10 mM HEPES (pH 6.0 with KOH). Patches were perfused via a gravity-flow perfusion system. Data were acquired with pClamp and recorded using an Axopatch 200B (Molecular Devices), filtered at 5 kHz, and sampled at 200 kHz. Single-channel currents were analyzed in an identical manner to those obtained from bilayers (see above).
The macroscopic concentration–inhibition relationships in Figs. 1 and 2 were fitted with a modified Hill equation:
I/I0=a+1−a/1+([X]/IC50)^h, (1) where I and IO are the currents in the presence and absence of inhibitor, respectively, [X] is the concentration of inhibitor, IC50 is the inhibitor concentration at which the inhibition is half maximal, h is the Hill coefficient, and a is the fraction of unblockable current; a = 0, except where indicated in the legend to Fig. 1.
The macroscopic concentration–activation relationships in Fig. 1 E were fitted with a modified Hill equation: I/I0=a+(1−a)([X]/IC50)^h/1+([X]/IC50)^h, (2) where I and IO are the currents in the presence and absence of agonist, respectively, [X] is the concentration of agonist, IC50 is the agonist concentration at which the activation is half maximal, h is the Hill coefficient, and a is the fraction of initial current.

[1] = Electrostriction measurement of membrane elasticity; assay type: physicochemical; details: 1–1,000 µM NFx
Method: Membrane elasticity measurements were performed as described previously ([Vitovic et al., 2013]). Briefly, a 1 kHz sine wave with an amplitude of 100 mV was applied to the membrane using a wave generator (Rigol DG821; Rigol Technologies). Due to the nonlinear dependence of membrane capacitance on the voltage V [C = C0 (1 + αV^2)], where C0 is the capacitance at V = 0 and α is the electrostriction coefficient, a third current harmonic with frequency 3 kHz and amplitude A3 is generated in addition to the basic first current harmonic, A1 (frequency 1 kHz).

WT TREK-2 = target: T2, WT TREK-2 (Homo sapiens, UniProt P57789); assay: Single-channel recordings of WT TREK-2 in excised patches from HEK293 cells; assay type: cell-based
T2 construct: full-length WT TREK-2 channels, we examined its effects on the mean open time of TREK-2 channels expressed in HEK293 cells; expressed in transfected cells; host or cells: HEK293 cells, transient transfection with pcDNA3
T2 sequence (P57789 1-543 isoform P57789-4): T1 sequence (P57789 1-543 isoform P57789-4)
Method: as §1
HEK293 cells were cultured in DMEM (Sigma) containing 10% FBS (Life Technologies), 3 mM glucose, and 2 mM glutamine at 37°C in a humidified atmosphere of 5% CO2/[…] at 37°C. Cells were transiently transfected with 0.2 µg channel pcDNA3 per dish using FuGENE 6 according to the manufacturer’s instructions. Cells were used 1–2 d after transfection.
as §2

[2] = +40 mV, in the presence of 80 µM TPA

h (Hill coefficient), NFx inhibition (human TREK-2; 0 mV, Fig. S4): 0.72 | h (Hill coefficient), NFx inhibition (human TREK-2; +40 mV, Fig. S4): 0.74 | h (Hill coefficient), NFx inhibition (human TREK-2; +40 mV, NFx on its own, Fig. 1E): 1.0 | a (fraction of unblockable current) (human TREK-2; [2]): 0.05 | h (Hill coefficient), NFx inhibition (human TREK-2; [2]): 1.2 | h (Hill coefficient), NFx inhibition (human TREK-2; +40 mV, in the presence of 100 mM TEA): 0.8 | h (Hill coefficient), NFx inhibition (human TREK-2; +80 mV, Fig. S4): 0.79 | IC50 (human TREK-2; IC50, NFx inhibition of TREK-2 currents, +40 mV, NFx on its own, Fig. 1E): 2.7 µM | IC50 (human TREK-2; IC50, NFx inhibition of macroscopic WT TREK-2 currents, 0 mV, Fig. S4): 4.2 µM | IC50 (human TREK-2; IC50, NFx inhibition of macroscopic WT TREK-2 currents, +40 mV, Fig. S4): 2 µM | IC50 (human TREK-2; IC50, NFx inhibition of macroscopic WT TREK-2 currents, +80 mV, Fig. S4): 1.4 µM | h (Hill coefficient), NFx inhibition (human TREK-2; NFx on its own, Fig. 2C): 1.7 | IC50 (human TREK-2; giant inside-out patches, physiological pH 7.4, NFx alone, read-out: IC50 for channel inhibition): ~3 µM | h (Hill coefficient), NFx inhibition (human TREK-2; in the presence of 50 µM ML335): 0.8 | h (Hill coefficient), NFx inhibition (human TREK-2; in the presence of 1 mM 2-APB): 0.6 | effect on the modulus of elasticity (E⊥) [1]: no obvious effect | mean Po (WT TREK-2; 10 µM NFx in the presence of 100 µM ML335, −40 mV): 0.69 ± 0.2 | amplitude ratio of γ (WT TREK-2; 10 µM NFx in the presence of 100 µM ML335 vs ML335 alone, −40 mV): 1.00 ± 0.01 | reduction of τo (mean open time) (WT TREK-2; 10 µM NFx, Fig. S6): ~30% | reduction of Po of WT TREK-2 channel (WT TREK-2; 10 µM NFx, no further change in the presence of NFx, as in Fig. S6): 79 ± 0.05% | τo (mean open time) (WT TREK-2; 10 µM NFx, −10 mV): 0.89 ms | reduction in γ (single-channel current amplitude) (WT TREK-2; 10 µM, −40 mV (Fig. 6B)): 11 ± 7% | reduction of channel Po (WT TREK-2; 10 µM, −40 mV (Fig. 6B)): 70 ± 0.03%
Compound: NCCC(Oc1ccc(C(F)(F)F)cc1)c1ccccc1 (centres unmarked) [NFx, norfluoxetine]
